Laboratory results as given in ChEMBL document CHEMBL1201862, “PubChem BioAssay data set” (2004).
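Exposure lasted 48 hours, with cells grown in 96-well plates and compounds tested at five concentrations. Abbreviation: GI50, concentration required for 50% inhibition of growth.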 Calls of active or inactive are those of the source. Rule as the data show it: active = GI50 up to about 1.1 µM and inactive = higher.

Columns and labels:
Assay in all cases: DTP human tumour cell line panel, 48 h
RPMI-8226 = test system: RPMI-8226
UACC-257 = test system: UACC-257
OVCAR-4 = test system: OVCAR-4
HCC 2998 = test system: HCC 2998
SK-MEL-2 = test system: SK-MEL-2
M19-MEL = test system: M19-MEL
Malme-3M = test system: Malme-3M
EKVX = test system: EKVX
HCT-15 = test system: HCT-15
OVCAR-8 = test system: OVCAR-8
HOP-92 = test system: HOP-92
SF-295 = test system: SF-295
SNB-75 = test system: SNB-75
HL-60 = test system: HL-60
SK-OV-3 = test system: SK-OV-3
MCF7 = test system: MCF7
NCI/ADR-RES = test system: NCI/ADR-RES
MDA-N = test system: MDA-N
MDA-MB-231 = test system: MDA-MB-231
Hs-578T = test system: Hs-578T

SMILES | GI50 (RPMI-8226) | GI50 (UACC-257) | GI50 (OVCAR-4) | GI50 (HCC 2998) | GI50 (SK-MEL-2) | GI50 (M19-MEL) | GI50 (Malme-3M) | GI50 (EKVX) | GI50 (HCT-15) [µM] | GI50 (OVCAR-8) | GI50 (HOP-92) | GI50 (SF-295) | GI50 (SNB-75) | GI50 (HL-60) | GI50 (SK-OV-3) | GI50 (MCF7) | GI50 (NCI/ADR-RES) | GI50 (MDA-N) | GI50 (MDA-MB-231) | GI50 (Hs-578T)
COC(=O)/C(=N\NC(=S)NN)C(C(=O)C(=O)Nc1ccccc1C(N)=O)c1nc2ccccc2nc1O (stereo not drawn) | > 100 µM (inactive) | > 100 µM (inactive) | > 100 µM (inactive) | > 100 µM (inactive) | > 100 µM (inactive) | > 100 µM (inactive) | > 100 µM (inactive) | > 100 µM (inactive) | > 100 | > 100 µM (inactive) | 43.5 µM (inactive) | > 100 µM (inactive) | – | – | – | – | – | – | – | –
CN(C)C(=S)/N=c1\ssc(=S)n1-c1ccccc1 | – | 15.7 µM (inactive) | 15.9 µM (inactive) | 19.6 µM (inactive) | 8.75 µM (inactive) | 16.3 µM (inactive) | 16.9 µM (inactive) | 23.4 µM (inactive) | 14.7 | 15.2 µM (inactive) | 20.4 µM (inactive) | 24.2 µM (inactive) | 17.4 µM (inactive) | 18.1 µM (inactive) | 83.9 µM (inactive) | – | – | – | – | –
Cc1cccc(C)c1NC(=O)CCc1n[nH]c(=S)o1 | 22.2 µM (inactive) | > 100 µM (inactive) | > 100 µM (inactive) | > 100 µM (inactive) | – | > 100 µM (inactive) | > 100 µM (inactive) | > 100 µM (inactive) | 78.5 | > 100 µM (inactive) | > 100 µM (inactive) | > 100 µM (inactive) | > 100 µM (inactive) | > 100 µM (inactive) | > 100 µM (inactive) | – | – | – | – | –
C=C[C@@]12CCCCC1C/C(=C(/O)OC)C(=O)C2 (stereo partly drawn) | > 100 µM (inactive) | > 100 µM (inactive) | > 100 µM (inactive) | > 100 µM (inactive) | > 100 µM (inactive) | > 100 µM (inactive) | – | > 100 µM (inactive) | – | > 100 µM (inactive) | > 100 µM (inactive) | > 100 µM (inactive) | > 100 µM (inactive) | > 100 µM (inactive) | > 100 µM (inactive) | – | – | – | – | –
O=C(O)C1(c2ccccc2)CCCNCC1 (stereo not drawn) | > 100 µM (inactive) | > 100 µM (inactive) | > 100 µM (inactive) | > 100 µM (inactive) | > 100 µM (inactive) | > 100 µM (inactive) | > 100 µM (inactive) | > 100 µM (inactive) | > 100 | > 100 µM (inactive) | > 100 µM (inactive) | > 100 µM (inactive) | > 100 µM (inactive) | – | > 100 µM (inactive) | – | – | – | – | –
O=C(Cc1nc2ccccc2s1)C(=O)Nc1ccc(Cl)cc1Cl | > 100 µM (inactive) | > 100 µM (inactive) | > 100 µM (inactive) | > 100 µM (inactive) | > 100 µM (inactive) | > 100 µM (inactive) | > 100 µM (inactive) | – | > 100 | > 100 µM (inactive) | 65.8 µM (inactive) | > 100 µM (inactive) | 47.4 µM (inactive) | – | > 100 µM (inactive) | – | – | – | – | –
O=C1CCN2C(=Nc3cccc4cccc2c34)N1 | > 100 µM (inactive) | > 100 µM (inactive) | > 100 µM (inactive) | > 100 µM (inactive) | – | > 100 µM (inactive) | – | 0.551 µM (active) | > 100 | > 100 µM (inactive) | – | – | 76.9 µM (inactive) | > 100 µM (inactive) | > 100 µM (inactive) | – | – | – | – | –
Cc1ccc(C2=Nc3ccccc3SC(c3cccc4c3OCO4)C2)cc1 (stereo not drawn) | 17.7 µM (inactive) | 18 µM (inactive) | 15.5 µM (inactive) | 20.9 µM (inactive) | 20.3 µM (inactive) | 19.8 µM (inactive) | 24.1 µM (inactive) | 21.1 µM (inactive) | 21.1 | 21.2 µM (inactive) | – | 18.7 µM (inactive) | 7.94 µM (inactive) | 17.4 µM (inactive) | 35.8 µM (inactive) | – | – | – | – | –
Cc1nc(N)sc1C(=O)/C=C/c1ccc(/C=C/C(=O)c2sc(NC(=O)CCCCCCCCC(=O)Nc3nc(C)c(C(=O)/C=C/c4ccc(/C=C/C(=O)c5sc(N)nc5C)cc4)s3)nc2C)cc1 | > 10 µM (inactive) | > 100 µM (inactive) | > 100 µM (inactive) | > 100 µM (inactive) | > 100 µM (inactive) | > 100 µM (inactive) | > 100 µM (inactive) | > 100 µM (inactive) | > 100 | > 100 µM (inactive) | < 0.01 µM (active) | > 100 µM (inactive) | – | > 100 µM (inactive) | > 100 µM (inactive) | – | – | – | – | –
COC(=O)C1=C(C(=O)OC)C2(C)OC1C(=O)C21CC1 (stereo not drawn) | 16.9 µM (inactive) | 57.1 µM (inactive) | 10.6 µM (inactive) | 25.5 µM (inactive) | > 100 µM (inactive) | 71 µM (inactive) | 23.9 µM (inactive) | 39.7 µM (inactive) | 19.7 | 24 µM (inactive) | – | 44 µM (inactive) | 28.9 µM (inactive) | 16.7 µM (inactive) | > 100 µM (inactive) | – | – | – | – | –
CC(C)(C)C(=O)OC12/C(=N/O)CCCCCC1c1ccccc12 (stereo not drawn) | 11.9 µM (inactive) | 15 µM (inactive) | 18.9 µM (inactive) | > 100 µM (inactive) | 19.2 µM (inactive) | 16.6 µM (inactive) | 21 µM (inactive) | – | 16.2 | 19.3 µM (inactive) | – | 15.6 µM (inactive) | 14.5 µM (inactive) | 18.2 µM (inactive) | 18.7 µM (inactive) | – | – | – | – | –
Cc1cc(NS(=O)(=O)c2ccc(NC(=O)c3ccc(Cl)c4c(Nc5ccc(S(=O)(=O)N=C(N)N)cc5)c5ccccc5nc34)cc2)no1 | 59.7 µM (inactive) | > 100 µM (inactive) | 68.5 µM (inactive) | 22.3 µM (inactive) | – | 46.8 µM (inactive) | > 100 µM (inactive) | 95.1 µM (inactive) | > 100 | 38.2 µM (inactive) | – | > 100 µM (inactive) | 29.7 µM (inactive) | – | > 100 µM (inactive) | – | – | – | – | –
CC(C)=CCC/C(C)=C/CC/C(C)=C/CSc1ccc(Cl)cc1C(=O)O | 22.6 µM (inactive) | 27.8 µM (inactive) | 27.7 µM (inactive) | 20.5 µM (inactive) | 15 µM (inactive) | – | 19.2 µM (inactive) | 18.6 µM (inactive) | 20.4 | 20 µM (inactive) | 22.2 µM (inactive) | 17.4 µM (inactive) | 18.7 µM (inactive) | 22.2 µM (inactive) | 17.3 µM (inactive) | 17.3 µM (inactive) | > 10 µM (inactive) | 29.4 µM (inactive) | 27 µM (inactive) | 23.2 µM (inactive)
Cc1ccc(C(O)(c2ccc(C)cc2)c2ccccn2)cc1 | > 100 µM (inactive) | > 100 µM (inactive) | > 100 µM (inactive) | > 100 µM (inactive) | > 100 µM (inactive) | > 100 µM (inactive) | > 100 µM (inactive) | 86.7 µM (inactive) | > 100 | > 100 µM (inactive) | – | > 100 µM (inactive) | 30.9 µM (inactive) | – | > 100 µM (inactive) | – | – | – | – | –
COc1ccc(-c2c(-c3ccccc3)c(C)c3ccccn23)cc1 | 47.6 µM (inactive) | 49.9 µM (inactive) | > 100 µM (inactive) | > 100 µM (inactive) | 33 µM (inactive) | – | 95.9 µM (inactive) | 99.5 µM (inactive) | 56.9 | > 100 µM (inactive) | > 100 µM (inactive) | > 100 µM (inactive) | > 100 µM (inactive) | 48.4 µM (inactive) | > 100 µM (inactive) | 57.7 µM (inactive) | > 100 µM (inactive) | 70.1 µM (inactive) | > 100 µM (inactive) | > 100 µM (inactive)
CC(=O)OC1C(CCl)OC(N=[N+]=[N-])C(OC(C)=O)C1OC(C)=O (stereo not drawn) | > 100 µM (inactive) | > 100 µM (inactive) | > 100 µM (inactive) | > 100 µM (inactive) | > 100 µM (inactive) | > 100 µM (inactive) | > 100 µM (inactive) | > 100 µM (inactive) | > 100 | > 100 µM (inactive) | – | > 100 µM (inactive) | > 100 µM (inactive) | > 100 µM (inactive) | > 100 µM (inactive) | – | – | – | – | –
COc1cccc(/C=C(/C(=O)O)c2cc(OC)c(OC)c(OC)c2)c1 | > 100 µM (inactive) | > 100 µM (inactive) | > 100 µM (inactive) | – | – | > 100 µM (inactive) | > 100 µM (inactive) | > 100 µM (inactive) | > 100 | > 100 µM (inactive) | 92.3 µM (inactive) | > 100 µM (inactive) | > 100 µM (inactive) | 66.5 µM (inactive) | – | – | – | – | – | –
CCCCNC1=C(C(=O)OCC)C(=O)CO1 | > 100 µM (inactive) | > 100 µM (inactive) | > 100 µM (inactive) | > 100 µM (inactive) | > 100 µM (inactive) | > 100 µM (inactive) | > 100 µM (inactive) | > 100 µM (inactive) | > 100 | > 100 µM (inactive) | – | > 100 µM (inactive) | 80.2 µM (inactive) | > 100 µM (inactive) | > 100 µM (inactive) | – | – | – | – | –
O=C1O[C@H]2[C@H](O)[C@@H](OC(=O)c3cc(O)c(O)c4c3[C@@H]3C1=CC(=O)C(O)(O)C3(O)O4)[C@H](OC(=O)c1cc(O)c(O)c(O)c1)O[C@@H]2CO (stereo partly drawn) [FUROSIN] | > 100 µM (inactive) | > 100 µM (inactive) | > 100 µM (inactive) | > 100 µM (inactive) | > 100 µM (inactive) | – | > 100 µM (inactive) | > 100 µM (inactive) | 36.4 | 79.1 µM (inactive) | 42 µM (inactive) | 71.6 µM (inactive) | 78.9 µM (inactive) | 28.2 µM (inactive) | 86.5 µM (inactive) | > 100 µM (inactive) | > 100 µM (inactive) | 33.6 µM (inactive) | > 100 µM (inactive) | > 100 µM (inactive)
